Key:
Type in all cases: physicochemical
[1] = Optimization of B-B3 incorporation in 10% w/v P123
Protocol: Using formulation methods described in Example 5, the aim was to incorporate 2 mg/ml of B-B3 into 10% w/v P123. It was shown by this method that the B-B3 can typically be incorporated at ˜1.8 mg/ml drug (based on absorbance readings and a molar extinction coefficient of 30425) 24 h post-hydration. This translates to approximately 10% drug loss. Unincorporated drug undergoes aggregation in aqueous solutions, and is characterized by the appearance of a 730 nm absorbance peak. Although the formulations can be made completely aggregate free by centrifugation or sterile filtration through 0.2 μm filters, this adds another step in the manufacturing process, which can be avoided by increasing the copolymer:drug ratio.

[2] = pH studies of copolymer formulations; details: acidification
Description: Counteracting the oily nature of P123 could be achieved by incorporation of copolymer that is in solid form at room temperature. The use of 1% w/w F127 with 9% w/v P123 instead of 10% P123 (w/v) produced a thin film, which was more readily hydrated. […] This necessitates hydration of the solid drug-polymer with a very mild buffer to counteract acidification which occurs upon use of sterile packed distilled water as commonly practiced in clinical settings. Behavior of poloxamers is unaffected by pH, and the use of buffers would be entirely dependent on ionizable groups present on the drug substance.

[3] = BPD-MA/F127 deposited on lactose: hydration and 0.2 μm filtration; details: 5% w/v and 10% w/v F127 deposited on lactose, hydrated in water
Protocol: In this experiment the deposition of the photosensitizer BPD-MA with the block copolymer Pluronic® F127 onto the sugar lactose was examined. Formulations containing 5% (w/v) and a 10% (w/v) F127 were tested. 0.5 g lactose and 10 mg BPD-MA were added to two rotary evaporation flasks. A stock solution of […] F127 was prepared in CH2Cl2. 1.25 ml (for 5% w/v) and 2.5 ml (for 10% w/v) F127 stock solution was added to each flask. The final volume in each flask was made up to 5.0 ml with CH2Cl2 and the components mixed to ensure complete dissolution. The solvent was removed by rotary evaporation at 50° C., and the flask left under vacuum for a further 15 min at 23° C. Micro-thin film deposits were scraped from the walls and hydrated in 5 ml water at 50° C. The formulations were filtered twice using 0.2 μm syringe filters (Acrodisc, polysulphone).

[4] = Vesicle size of liposomal BPD-MA (conventional and lactose micro-thin film)
Protocol: For the standard laboratory preparation the liposomal bilayer components of 20 mg BPD-MA, 65 mg egg phosphatidyl glycerol (EPG) and 94 mg dimyristoyl phosphatidylcholine (DMPC), are combined in a round bottom flask and dissolved in 10 ml methylene dichloride (CH2Cl2). […]. The solvent is removed using standard rotary evaporation (Rotavapor R-124 and Buchi B171 Vacobox pump) leaving a thin film of the bilayer components on the flask wall. Once the thin film is prepared, it is hydrated using 10 ml iso-osmolar lactose (10% w/v) to give a final concentration of 2 mg/ml BPD-MA. Size reduction is carried out by consecutive extrusions through 400 nm, 200 nm, and finally 100 nm pore polycarbonate membranes (5 times through each) under high pressure. […] The final product was lyophilized and can be reconstituted prior to use by addition of water.
10 mg BPD-MA was combined with 32.5 mg phosphatidyl glycerol (EPG) and 47 mg dimyristoyl phosphatidylcholine (DMPC), and dissolved in 5 ml CH2Cl2. 2.5 ml of this solution (containing 5 mg BPD-MA) was then added to […] lactose in a rotary evaporator flask. The solvent was removed under rotary evaporation at 50° C. The film deposited on the glass wall was hydrated by addition of 2.5 ml warm distilled water (60° C.) with swirling. The hydrated material was examined under the microscope. Size reduction was carried out by extrusion of the hydrated material through 400, 200 and 100 nm pore polycarbonate membranes (5× through each) as described in Example 20.
In this experiment the effect of replacing CH2Cl2 with ethanol as a solvent for the sugar proliposomal formulation of photosensitizer and phospholipids was examined. The experiment was carried out as described in Example 21 except with the following changes: 20 mg BPD-MA was combined with 65 mg EPG and 94 mg DMPC, and dissolved in a total volume of 20 ml ethanol with occasional warming in 50° C. water bath. Ethanol was removed under rotary evaporation at 50° C., leaving BPD-MA/lipid coated lactose crystals evenly deposited onto flask wall. Flask was removed from the temperature bath, and left under vacuum for 10 min. The contents of the flask were scraped and hydrated by addition of 10 ml distilled water (60° C.) with swirling. The hydrated material was examined under the microscope and the MLV diameter was measured using laser light scattering on a NICOMP™ 370 Submicron Particle Sizer. Extrusion was then carried out as described in Example 20.
The experimental procedure was carried out was as described in Example 22, with the exception of the following changes. The liposomal bilayer constituents, 32.5 mg of EPG and 47 mg of DMPC, were dissolved in 2 ml ethanol, instead of 20 ml. The solution was warmed to 50° C. in a water bath. This was followed by addition of 10 mg BPD-MA, and the total volume was made up to 4 ml to ensure complete dissolution (2.5 mg/ml final concentration). 0.5 g of lactose was added to the round bottom flask. The solvent was removed by rotary evaporation, and the flask removed from the water bath, and left under vacuum for 1.5 h. For hydration, 5 ml of pre-warmed distilled water (60° C.) was added to flask with swirling. Extrusion of the solution and sizing of the vesicles was carried out as described in Example 22.

Compound | Drug loss ([1]; 2 mg/ml added) | Drug incorporated ([1]; 2 mg/ml added, 24 h post-hydration) [mg/mL] | Drug incorporation ([1]; final drug concentration 1 mg/ml) | pH dependency of formulation stability [2] | Drug loss on filtration through 0.2 μm filters [3] | Diameter of MLVs ([4]; hydration of conventional thin films) [μm] | Mean diameter of the MLVs ([4]; lactose micro-thin film from ethanol, 92.44% by volume) [nm] | Diameter of unilamellar vesicles after extrusion, smaller population ([4]; lactose micro-thin film, 20 ml ethanol, 23.17% by volume) [nm] | Diameter of unilamellar vesicles after extrusion, larger population ([4]; lactose micro-thin film, 20 ml ethanol, 76.83% by volume) [nm] | Mean diameter of unilamellar vesicles, smaller population ([4]; lactose micro-thin film, reduced ethanol volume, 29.49% by volume) [nm] | Mean diameter of unilamellar vesicles, larger population ([4]; lactose micro-thin film, reduced ethanol volume, 70.5% by volume) [nm]
C=Cc1c(C)c2cc3nc(cc4[nH]c(cc5nc(cc1[nH]2)C1(C)C5=CC=C(C(=O)O)C1C(=O)OC)c(C)c4CCC(=O)OC)C(CCC(=O)OC)=C3C (centres unmarked) [B-B3] | approximately 10% | ~1.8 | complete incorporation of all added drug | detrimental to formulation stability | – | – | – | – | – | – | –
C=Cc1c(C)c2cc3nc(cc4[nH]c(cc5nc(cc1[nH]2)C(C)=C5CCC(=O)O)c(CCC(=O)OC)c4C)[C@@]1(C)C3=CC=C(C(=O)OC)[C@H]1C(=O)OC [BPD-MA, benzoporphyrin derivative mono-acid-ring A, reference compound] | – | – | – | – | no drug loss | > 1 | 690 | 47.9 | 110.4 | 58.4 | 132.4
